Patent publication US20220235065A1 (Epizyme, Inc., priority 2016, published 2022)

Molecular target: T1, recombinant purified human EHMT2 913-1193 (Homo sapiens, UniProt Q96KQ7)
T1 construct: Recombinant purified human EHMT2 913-1193 (55 μM) synthesized by Viva was used for all experiments; purchased Viva
T1 sequence (Q96KQ7 913-1193): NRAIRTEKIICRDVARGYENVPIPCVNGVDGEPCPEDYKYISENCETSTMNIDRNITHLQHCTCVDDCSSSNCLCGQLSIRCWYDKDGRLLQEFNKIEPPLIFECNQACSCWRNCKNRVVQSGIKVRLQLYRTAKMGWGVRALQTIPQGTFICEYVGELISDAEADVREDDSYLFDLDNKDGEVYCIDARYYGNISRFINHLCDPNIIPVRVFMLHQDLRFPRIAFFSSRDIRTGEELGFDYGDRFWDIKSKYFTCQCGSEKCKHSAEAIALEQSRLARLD
Assay: EHMT2 enzyme assay on histone peptide substrate (3H-SAM Flashplate)
Type: biochemical
Conditions: read-out: EHMT2 PEP (IC50 μM)
Protocol: Recombinant purified human EHMT2 913-1193 (55 μM) synthesized by Viva was used for all experiments. Biotinylated histone peptides were synthesized by Biopeptide and HPLC-purified to >95% purity. Streptavidin Flashplates and seals were purchased from PerkinElmer and 384 Well V-bottom Polypropylene Plates were from Greiner. ^3H-labeled S-adenosylmethionine (3H-SAM) was obtained from American Radiolabeled Chemicals with a specific activity of 80 Ci/mmol. Unlabeled SAM and S-adenosylhomocysteine (SAH) were obtained from American Radiolabeled Chemicals and Sigma-Aldrich respectively. Flashplates were washed in a Biotek ELx-405 with 0.1% Tween. 384-well Flashplates and 96-well filter binding plates were read on a TopCount microplate reader (PerkinElmer). Compound serial dilutions were performed on a Freedom EVO (Tecan) and spotted into assay plates using a Thermo Scientific Matrix PlateMate (Thermo Scientific). Reagent cocktails were added by Multidrop Combi (Thermo Scientific).
General Procedure for EHMT2 Enzyme Assay on Histone Peptide Substrate.
10-point curves of test compounds were made on a Freedom EVO (Tecan) using serial 3-fold dilutions in DMSO, beginning at 2.5 mM (final top concentration of compound was 50 μM and the DMSO was 2%). A 1 μL aliquot of the inhibitor dilution series was spotted in a polypropylene 384-well V-bottom plate (Greiner) using a Thermo Scientific Matrix PlateMate (Thermo Scientific). The 100% inhibition control consisted of 1 mM final concentration of the product inhibitor S-adenosylhomocysteine (SAH, Sigma-Aldrich). Compounds were incubated for 30 minutes with 40 μL per well of 0.031 nM EHMT2 (recombinant purified human EHMT2 913-1193, Viva) in 1× assay buffer (20 mM Bicine [pH 7.5], 0.002% Tween 20, 0.005% Bovine Skin Gelatin and 1 mM TCEP). 10 μL per well of substrate mix comprising assay buffer, ^3H-SAM (3H-labeled S-adenosylmethionine, American Radiolabeled Chemicals, specific activity of 80 Ci/mmol), unlabeled SAM (American Radiolabeled Chemicals), and peptide representing histone H3 residues 1-15 containing C-terminal biotin (appended to a C-terminal amide-capped lysine, synthesized by Biopeptide and HPLC-purified to greater than 95% purity) were added to initiate the reaction (both substrates were present in the final reaction mixture at their respective Km values, an assay format referred to as “balanced conditions”). Reactions were incubated for 60 minutes at room temperature and quenched with 10 μL per well of 400 μM unlabeled SAM, then transferred to a 384-well streptavidin Flashplate (PerkinElmer) and washed in a Biotek ELx-405 well washer with 0.1% Tween after 60 minutes. 384-well Flashplates were read on a TopCount microplate reader (PerkinElmer).
IC50 curves were generated using triplicate wells per concentration of compound. The IC50 is the concentration of compound at which measured methylation is inhibited by 50% as interpolated from the dose response curves. IC50 values were calculated using a non-linear regression (variable slope-four parameter fit model) with by the following formula
where Top is fixed at 100% and Bottom is fixed to 0%, [I]=concentration of inhibitor, IC50=half maximal inhibitory concentration and n=Hill Slope.

Compound: CNC1=Nc2cc(-c3cc4[nH]ccc4cn3)c(OC)cc2C12CCC2 [Compound 214]
- IC50: < 0.1 µM

Compound: CNC1=Nc2cc(-c3cc4ccncc4[nH]3)c(OC)cc2C12CCC2 [Compound 215]
- IC50: < 0.1 µM

Compound: CNC1=Nc2cc(-c3[nH]c4cnccc4c3Cl)c(OC)cc2C12CCC2 [Compound 216]
- IC50: < 0.1 µM

Compound: CNc1cc(C)nc(Nc2ccc(OC)c(-c3ccc4c(c3)NC(=O)C4)c2)n1 [Compound 218]
- IC50: > 10 µM

Compound: CNc1cc(C)nc(Nc2ccc(OC)c(-c3cc4c(cn3)CC(=O)N4)c2)n1 [Compound 219]
- IC50: 1 to 10 µM

Compound: CNc1cc(C)nc(Nc2ccc(OC)c(-c3cc4[nH]ccc4cn3)c2OC)n1 [Compound 220]
- IC50: > 10 µM

Compound: CNc1cc(C)nc(Nc2ccc(OC)c(-c3cc4[nH]ccc4cn3)c2F)n1 [Compound 221]
- IC50: 0.1 to 1 µM

Compound: CNCc1cnn(-c2c(OC)ccc(Nc3nc(C)cc(NC)n3)c2OC)c1 [Compound 222]
- IC50: 0.1 to 1 µM

Compound: CNc1cc(C)nc(Nc2ccc(OC)c(-c3cnc4cc[nH]c4c3)c2)n1 [Compound 223]
- IC50: < 0.1 µM

Compound: CNc1cc(-c2cc(Nc3nc(C)cc(NC)n3)ccc2OC)ncn1 [Compound 225]
- IC50: 1 to 10 µM

Compound: CNc1cc(C)nc(Nc2ccc(OC)c(-c3cc4[nH]ccc4nc3C)c2)n1 [Compound 228]
- IC50: < 0.1 µM

Compound: CNc1cc(C)nc(Nc2ccc(OC)c(-c3cc4[nH]cc(F)c4cn3)c2)n1 [Compound 229]
- IC50: 0.1 to 1 µM

Compound: CNc1cc(-c2cc(Nc3nc(C)cc(NC)n3)ccc2OC)nc(C)n1 [Compound 230]
- IC50: 0.1 to 1 µM

Compound: COc1cc(NC2CCNCC2)ccc1-c1cc2[nH]ccc2cn1 [Compound 231]
- IC50: 1 to 10 µM

Compound: CNc1cc(C)nc(Nc2ccc(OC)c(-c3cc(C4CC4)ncn3)c2)n1 [Compound 232]
- IC50: > 10 µM

Compound: CNc1cc(C)nc(Nc2ccc(OC)c(-c3cc(C4CC4)cnn3)c2)n1 [Compound 233]
- IC50: 1 to 10 µM

Compound: CNc1cc(C)nc(Nc2ccc(OC)c(-c3cn4ccnc4cn3)c2)n1 [Compound 234]
- IC50: > 10 µM

Compound: CNc1cc(C)nc(Nc2ccc(OC)c(-c3cc4cnoc4cn3)c2)n1 [Compound 235]
- IC50: > 10 µM

Compound: COc1cc(NC2CCNCC2)ccc1-c1cc(C2CC2)cnn1 [Compound 236]
- IC50: > 10 µM

Compound: CNc1cc(C)nc(Nc2ccc(OC)c(-c3cc4[nH]ccc4c(C)n3)c2)n1 [Compound 237]
- IC50: < 0.1 µM

Compound: CNC1=Nc2cc(-c3[nH]c4cnccc4c3C)c(OC)cc2C12CCC2 [Compound 238, 5′-methoxy-N-methyl-6′-(3-methyl-1H-pyrrolo[2,3-c]pyridin-2-yl)spiro[cyclobutane-1,3′-indol]-2′-amine]
- IC50: < 0.1 µM

Compound: CNc1cc(C)nc(Nc2ccc(C)c(C(=O)Nc3cccnc3)c2)n1 [Compound 239]
- IC50: > 10 µM

Compound: CNc1cc(C)nc(Nc2ccc(Cl)c(C(=O)Nc3cccnc3)c2)n1 [Compound 240]
- IC50: > 10 µM

Compound: CNc1cc(C)nc(Nc2ccc(C)c(-c3cc4ccncc4[nH]3)c2)n1 [Compound 241]
- IC50: < 0.1 µM

Compound: CNc1cc(C)nc(Nc2cccc(C(=O)Nc3cccnc3)c2)n1 [Compound 242]
- IC50: > 10 µM
